{"source": "patent US10933061B2", "about": "(Shepherd Therapeutics, Inc., priority 2017, dated 2021)", "key": {"[1]": {"system": "PC12 pheochromocytoma/paraganglioma cells", "details": "combination with pyrvinium pamoate, 72 hour incubation", "experimental": "(§1) Following a 72 hour incubation, cell viability was determined using Cell Titer Glo."}, "[2]": {"system": "CCC-5 cholangiocarcinoma cells", "assay": "Chou-Talalay combination assay, Cell Titer Glo", "type": "cell-based", "details": "72 hour incubation; for CI range: combination with pyrvinium pamoate", "experimental": "as §1"}, "[3]": {"system": "CHP-212 neuroblastoma cells", "assay": "Chou-Talalay combination assay, Cell Titer Glo", "type": "cell-based", "details": "72 hour incubation; for CI range: combination with pyrvinium pamoate", "experimental": "as §1"}, "[4]": {"system": "GIST-1 gastrointestinal stromal tumor cells", "assay": "Chou-Talalay combination assay, Cell Titer Glo", "type": "cell-based", "details": "combination with pyrvinium pamoate, 72 hour incubation", "experimental": "as §1"}, "[5]": {"system": "BxPC-3 pancreatic carcinoma cells", "assay": "Chou-Talalay combination assay, Cell Titer Glo", "details": "combination with pyrvinium pamoate, 72 hour incubation", "experimental": "as §1"}, "[6]": {"system": "COV362 ovarian carcinoma cells", "assay": "Chou-Talalay combination assay, Cell Titer Glo", "type": "cell-based", "details": "combination with pyrvinium pamoate, 72 hour incubation", "experimental": "as §1"}, "[7]": {"system": "DMS-114 small cell lung carcinoma cells", "assay": "Chou-Talalay combination assay, Cell Titer Glo", "type": "cell-based", "details": "combination with pyrvinium pamoate, 72 hour incubation", "experimental": "as §1"}, "[8]": {"system": "SW-1271 small cell lung carcinoma cells", "assay": "Chou-Talalay combination assay, Cell Titer Glo", "type": "cell-based", "details": "combination with pyrvinium pamoate, 72 hour incubation", "experimental": "as §1"}, "[9]": {"system": "SK-LMS-1 leiomyosarcoma cells", "assay": "Chou-Talalay combination assay, Cell Titer Glo", "type": "cell-based", "details": "combination with pyrvinium pamoate, 72 hour incubation", "experimental": "as §1"}, "[10]": {"system": "TFK-1 cholangiocarcinoma cells", "assay": "Chou-Talalay combination assay, Cell Titer Glo", "type": "cell-based", "details": "72 hour incubation; for CI range: combination with pyrvinium pamoate", "experimental": "as §1"}, "[11]": {"system": "Rh30 rhabdomyosarcoma cells", "assay": "Chou-Talalay combination assay, Cell Titer Glo", "type": "cell-based", "details": "combination with pyrvinium pamoate, 72 hour incubation", "experimental": "as §1"}, "[12]": {"system": "IMR-32 neuroblastoma cells", "assay": "Chou-Talalay combination assay, Cell Titer Glo", "type": "cell-based", "details": "combination with pyrvinium pamoate, 72 hour incubation", "experimental": "as §1"}, "[13]": {"system": "Hs766t pancreatic carcinoma cells", "assay": "Chou-Talalay combination assay, Cell Titer Glo", "type": "cell-based", "details": "72 hour incubation", "experimental": "as §1"}, "[14]": {"system": "TC-32 Ewing's sarcoma cells", "assay": "Chou-Talalay combination assay, Cell Titer Glo", "type": "cell-based", "details": "combination with pyrvinium pamoate, 72 hour incubation", "experimental": "as §1"}, "[15]": {"system": "carcinoid tumor cell line STC-1", "assay": "Chou-Talalay combination assay, Cell Titer Glo", "type": "cell-based", "details": "combination with pyrvinium pamoate, 72 hour incubation", "experimental": "as §1"}, "[16]": {"system": "UM-Chor1 chordoma cell line", "assay": "Chou-Talalay combination assay, Cell Titer Glo", "type": "cell-based", "details": "combination with pyrvinium pamoate, 72 hour incubation", "experimental": "as §1"}, "[17]": {"system": "NCI-H295R adrenocortical carcinoma cells", "assay": "Chou-Talalay combination assay, Cell Titer Glo", "type": "cell-based", "details": "combination with pyrvinium pamoate, 72 hour incubation", "experimental": "as §1"}, "[18]": {"system": "Rh41 rhabdomyosarcoma cells", "assay": "Chou-Talalay combination assay, Cell Titer Glo", "type": "cell-based", "details": "combination with pyrvinium pamoate, 72 hour incubation", "experimental": "as §1"}, "[19]": {"system": "TOV-112D ovarian carcinoma cells", "assay": "Chou-Talalay combination assay, Cell Titer Glo", "type": "cell-based", "details": "72 hour incubation", "experimental": "as §1"}, "[20]": {"system": "TC-71 Ewing's sarcoma cells", "assay": "Chou-Talalay combination assay, Cell Titer Glo", "type": "cell-based", "details": "72 hour incubation", "experimental": "as §1"}, "[21]": {"system": "SW13 adrenocortical carcinoma cells", "assay": "Chou-Talalay combination assay, Cell Titer Glo", "type": "cell-based", "details": "72 hour incubation", "experimental": "as §1"}, "[22]": {"system": "SK-UT-1B leiomyosarcoma cells", "assay": "Chou-Talalay combination assay, Cell Titer Glo", "type": "cell-based", "details": "combination with pyrvinium pamoate, 72 hour incubation", "experimental": "as §1"}, "[23]": {"system": "SNU-16 gastric carcinoma cells", "assay": "Chou-Talalay combination assay, Cell Titer Glo", "type": "cell-based", "details": "combination with pyrvinium pamoate, 72 hour incubation", "experimental": "as §1"}, "LO-68 mesothelioma cells": {"system": "LO-68 mesothelioma cells", "assay": "Chou-Talalay combination assay, Cell Titer Glo", "type": "cell-based", "details": "combination with pyrvinium pamoate, 72 hour incubation", "experimental": "as §1"}, "[24]": {"system": "Kato-III gastric carcinoma cells", "assay": "Chou-Talalay combination assay, Cell Titer Glo", "type": "cell-based", "details": "Kato-III; combination with pyrvinium pamoate; 72 hour incubation", "experimental": "as §1"}, "[25]": {"system": "SK-N-AS neuroblastoma cells", "assay": "Chou-Talalay combination assay, Cell Titer Glo", "type": "cell-based", "details": "SK-N-AS; combination with pyrvinium pamoate; 72 hour incubation", "experimental": "as §1"}, "[26]": {"system": "SK-UT-1 leiomyosarcoma cells", "assay": "Chou-Talalay combination assay, Cell Titer Glo", "type": "cell-based", "details": "combination with pyrvinium pamoate, 72 hour incubation", "experimental": "as §1"}, "[27]": {"system": "SKOV-3 ovarian carcinoma cells", "assay": "Chou-Talalay combination assay, Cell Titer Glo", "type": "cell-based", "details": "combination with pyrvinium pamoate, 72 hour incubation", "experimental": "as §1"}, "JU-77 mesothelioma cells": {"system": "JU-77 mesothelioma cells", "assay": "Chou-Talalay combination assay, Cell Titer Glo", "type": "cell-based", "details": "combination with pyrvinium pamoate, 72 hour incubation", "experimental": "as §1"}, "[28]": {"details": "combination with pyrvinium pamoate"}}, "note": "Values joined by “and” are separate entries in the source; they are usually repeats but may differ in a detail not shown here. Equal values may be shown once."}
{"compound": "CN(C)/N=N/c1[nH]cnc1C(N)=O", "note": "[Dacarbazine]", "values": [{"measurement": "CI range", "setting": "[1]", "result": "0.550-0.818"}]}
{"compound": "CCN1CCN(Cc2ccc(Nc3ncc(F)c(-c4cc(F)c5nc(C)n(C(C)C)c5c4)n3)nc2)CC1", "note": "[Abemaciclib]", "values": [{"measurement": "CI range", "setting": "[2]", "result": "0.628-0.841"}, {"measurement": "CI range", "setting": "[3]", "result": "0.076-0.772"}, {"measurement": "CI range", "setting": "[4]", "result": "0.249-0.699"}, {"measurement": "CI range", "setting": "[5]", "result": "0.417-0.895"}, {"measurement": "CI range", "setting": "[6]", "result": "0.144-0.714"}, {"measurement": "CI range", "setting": "[7]", "result": "0.327-0.876"}, {"measurement": "CI range", "setting": "[8]", "result": "0.183-0.889"}, {"measurement": "CI range", "setting": "[9]", "result": "0.350-0.808"}, {"measurement": "CI range", "setting": "[10]", "result": "0.522-0.884"}, {"measurement": "CI range", "setting": "[11]", "result": "0.148-0.886"}, {"measurement": "CI range", "setting": "[12]", "result": "(0.485-0.860)"}, {"measurement": "CI range", "setting": "[13]; [28]", "result": "0.587-0.863 and 0.304-0.879"}]}
{"compound": "CC[C@]1(O)C[C@H]2CN(CCc3c([nH]c4ccccc34)[C@@](C(=O)OC)(c3cc4c(cc3OC)N(C=O)[C@H]3[C@@](O)(C(=O)OC)[C@H](OC(C)=O)[C@]5(CC)C=CCN6CC[C@]43[C@@H]65)C2)C1", "note": "[Vincristine]", "values": [{"measurement": "CI range", "setting": "[1]", "result": "0.614-0.841"}, {"measurement": "CI range", "setting": "[14]", "result": "0.659-0.869"}, {"measurement": "Synergy with pyrvinium pamoate", "setting": "[2]", "result": "No"}, {"measurement": "CI range", "setting": "[15]", "result": "0.036-0.854"}, {"measurement": "CI range", "setting": "[16]", "result": "0.249-0.560"}, {"measurement": "Synergy with pyrvinium pamoate", "setting": "[3]", "result": "No"}, {"measurement": "CI range", "setting": "[4]", "result": "0.231-0.756 and 0.150-0.772"}, {"measurement": "CI range", "setting": "[5]", "result": "0.347-0.869"}, {"measurement": "CI range", "setting": "[17]", "result": "0.752-0.827"}, {"measurement": "CI range", "setting": "[6]", "result": "0.432-0.825"}, {"measurement": "CI range", "setting": "[9]", "result": "0.163-0.831"}, {"measurement": "CI range", "setting": "[10]", "result": "0.453-0.827"}, {"measurement": "CI range", "setting": "[18]", "result": "0.284-0.876"}, {"measurement": "CI range", "setting": "[11]", "result": "0.477-0.883"}, {"measurement": "CI range", "setting": "[19]; [28]", "result": "0.477-0.858"}, {"measurement": "Synergy with pyrvinium pamoate", "setting": "[13]", "result": "No"}, {"measurement": "CI range", "setting": "[20]; [28]", "result": "0.251-0.898"}, {"measurement": "CI range", "setting": "[21]; [28]", "result": "0.499-0.875"}]}
{"compound": "COc1cccc2c1C(=O)c1c(O)c3c(c(O)c1C2=O)C[C@@](O)(C(=O)CO)C[C@@H]3O[C@H]1C[C@H](N)[C@H](O)[C@H](C)O1", "note": "[Doxorubicin]", "values": [{"measurement": "CI range", "setting": "[22]", "result": "0.352-0.739"}, {"measurement": "CI range", "setting": "[14]", "result": "0.424-0.872"}, {"measurement": "CI range", "setting": "[2]", "result": "0.341-0.805"}, {"measurement": "CI range", "setting": "[23]", "result": "0.614-0.878"}, {"measurement": "CI range", "setting": "[15]", "result": "0.807-0.890"}, {"measurement": "CI range", "setting": "[16]", "result": "0.423-0.875"}, {"measurement": "CI range", "setting": "[3]", "result": "0.696-0.812"}, {"measurement": "CI range", "setting": "[4]", "result": "0.169-0.883"}, {"measurement": "CI range", "setting": "[17]", "result": "0.185-0.872"}, {"measurement": "CI range", "setting": "[6]", "result": "0.021-0.895"}, {"measurement": "CI range", "setting": "LO-68 mesothelioma cells", "result": "0.008-0.642"}, {"measurement": "CI range", "setting": "[24]", "result": "Yes- (0.021-0.584)"}, {"measurement": "CI range", "setting": "[25]", "result": "Yes- (0.082-0.879)"}, {"measurement": "Synergy with pyrvinium pamoate", "setting": "[10]", "result": "No"}, {"measurement": "CI range", "setting": "[18]", "result": "0.145-0.834"}, {"measurement": "CI range", "setting": "[26]", "result": "(0.556-0.858)"}, {"measurement": "CI range", "setting": "[27]", "result": "(0.017-0.870)"}, {"measurement": "CI range", "setting": "JU-77 mesothelioma cells", "result": "0.444-0.889"}, {"measurement": "Synergy with pyrvinium pamoate", "setting": "[19]", "result": "No"}, {"measurement": "Synergy with pyrvinium pamoate", "setting": "[20]", "result": "No"}, {"measurement": "Synergy with pyrvinium pamoate", "setting": "[21]", "result": "No"}]}
